Results as given in patent US20130273003A1, “Therapies for Treating Hepatitis C Virus Infection” (priority 2012, published 2013).

Tests used:
[1] = tested on: genotype 1 HCV; assay: ADVANCE trial: SVR rates, overall and by IL28B genotype; assay type: in vivo, Hepatitis C virus; details: for SVR rate: overall (full analysis population)
Protocol: IL28B genotype was determined in de-identified left-over specimens available from treatment-naïve genotype 1 HCV patients from ADVANCE U.S. sites. Due to the requirements of the de-identification procedure, only samples from Caucasian patients were tested. A series of associated clinical data was retained with the de-identified samples: HCV genotype, prior treatment response, assigned study arm, study completion, RVR, SVR, baseline viral load, EVR, undetectable at EOT.
IL28B genotyping was performed using 100 ng DNA from whole blood or peripheral blood mononuclear cell preparations with TaqMan® PCR, rs12979860 (ABI)

[2] = tested on: hepatitis C virus (HCV) replicon; assay: HCV Replicon Cell Assay; assay type: cell-based
Protocol: Cells containing hepatitis C virus (HCV) replicon were maintained in DMEM containing 10% fetal bovine serum (FBS), 0.25 mg per ml of G418, with appropriate supplements (media A).
On day 1, replicon cell monolayer was treated with a trypsin:EDTA mixture, removed, and then media A was diluted into a final concentration of 100,000 cells per ml wit. 10,000 cells in 100 μl were plated into each well of a 96-well tissue culture plate, and cultured overnight in a tissue culture incubator at 37° C.
On day 2, compounds (in 100% DMSO) were serially diluted into DMEM containing 2% FBS, 0.5% DMSO, with appropriate supplements (media B). The final concentration of DMSO was maintained at 0.5% throughout the dilution series.
Media on the replicon cell monolayer was removed, and then media B containing various concentrations of compounds was added. […]
A Taqman real-time RT-PCR quantification assay was set up with two sets of specific primers and probe. […] Total RNA extractants from treated HCV replicon cells was added to the PCR reactions for quantification of both HCV and BVDV RNA in the same PCR well. […] The level of HCV RNA in each well was calculated according to a standard curve run in the same PCR plate. The percentage of inhibition or decrease of HCV RNA level due to compound treatment was calculated using the DMSO or no compound control as 0% of inhibition. […]

[3] = tested on: HCV; assay: REALIZE trial: SVR by IL28B genotype in Peg-IFN/RBV experienced patients; assay type: in vivo, Hepatitis C virus; details: TVR 750 mg every 8 hours in combination with Peg-IFN/RBV, treatment-experienced patients
Protocol: This exploratory sub-analysis evaluated virologic response by IL28B genotype (rs12979860) in the Phase III TVR REALIZE trial. REALIZE is an international, multicentre, randomized, double-blind, placebo-controlled trial in Peg-IFN/RBV experienced patients; including prior relapsers, prior partial responders and prior null responders. Patients were included in this sub-analysis if they had consented to genetic testing.
FIG. 1 is a graphic depiction of the REALIZE study design. Drugs were administered in the following dosages: Peg-IFN alfa-2a=180 μg/week; RBV=1000-1200 mg/day; TVR=750 mg every 8 hours; Pbo=placebo. Overall, 527/662 (80%) patients enrolled in REALIZE consented to genetic testing; Data from T12/PR48 and T12(DS)/PR48 arms were pooled since no differences were observed between TVR arms. Randomization was stratified by viral load and prior response. Stopping rules were applied for TVR (Weeks 4, 6, and 8) and Peg-IFN/RBV (Weeks 12, 24, and 36).

CCC[C@H](NC(=O)[C@@H]1[C@H]2CCC[C@H]2CN1C(=O)[C@@H](NC(=O)[C@@H](NC(=O)c1cnccn1)C1CCCCC1)C(C)(C)C)C(=O)C(=O)NC1CC1 [VX-950]
SVR rate ([1]; T8PR arm): 69%
SVR rate ([1]; T12PR arm): 75%
SVR ([1]; T12PR, IL28B CC): 90%
patients receiving 24 weeks of total therapy ([1]; T12PR, IL28B CC): 78%
SVR ([1]; T12PR, IL28B CT): 71%
SVR ([1]; T12PR, IL28B TT): 73%
RVR and eRVR rates compared to peginterferon alfa-2a/ribavirin alone ([1]; telaprevir-based regimen): improved RVR and eRVR rates across all IL28B genotypes
achieved SVR ([1]; telaprevir-based regimen, eRVR, IL28B CC): 97%
achieved SVR ([1]; telaprevir-based regimen, eRVR, IL28B CT): 88%
achieved SVR ([1]; telaprevir-based regimen, eRVR, IL28B TT): 85%
achieved SVR ([1]; telaprevir-based regimen, no eRVR, IL28B CC): 63%
achieved SVR ([1]; telaprevir-based regimen, no eRVR, IL28B CT): 33%
achieved SVR ([1]; telaprevir-based regimen, no eRVR, IL28B TT): 46%
achieved SVR ([1]; telaprevir-based regimen, patients who did not have eRVR (48 weeks of therapy)): 43%
achieved SVR ([1]; telaprevir-based regimen, patients who had eRVR (24 weeks of therapy)): 91%
activity in the replicon assay [2]: significant activity
SVR rates versus Peg-IFN/RBV alone [3]: increased SVR rates across all IL28B genotypes
